Test results from patent US20060069132A1, “Azolecarboxamide herbicides” (priority 2004, published 2006).

Legend:
wheat = test: Test B postemergence herbicide test; type: in vivo, Triticum aestivum; parameters: key to Wheat plant response rating: 0 = no effect, 100 = complete control; details: postemergence, visual rating, scale 0 (no effect) to 100 (complete control)
Summary of the method: (§1)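 Greenhouse test; postemergence application to plants at 1–4 leaves (2–18 cm); paddy species at 2 leaves; evaluated visually vs controls at 13–15 days; scale 0–100 (100 = complete control).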

cocklebur = test: Test B pre-/postemergence herbicide test; type: in vivo, Xanthium strumarium; details: for Plant response rating, Cocklebur: preemergence; for Cocklebur plant response rating: postemergence, visual rating, scale 0 (no effect) to 100 (complete control)
Summary of the method: (§2)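 Pre: seeds sown, then sprayed. Post: 1–4-leaf plants (2–18 cm) sprayed at the same time. Paddy: flooded, treated at 2-leaf stage. Formulation: non-phytotoxic solvent with surfactant. Greenhouse 13–15 days; visual 0–100 score relative to controls.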

morningglory = test: Test B pre-/postemergence herbicide test; type: in vivo, Ipomoea coccinea; details: for Plant response rating, Morningglory: preemergence; for Morningglory plant response rating: postemergence, visual rating, scale 0 (no effect) to 100 (complete control)
Summary of the method: as §2

Surinam grass = test: Test B pre-/postemergence herbicide test; type: in vivo, Urochloa decumbens; details: for Plant response rating, Surinam Grass: preemergence; for Surinam Grass plant response rating: postemergence, visual rating, scale 0 (no effect) to 100 (complete control)
Summary of the method: (§3)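 Evaluation is visual, comparing treated with control plants on a scale where 0 means no effect and 100 means full control. Treatments were preemergence, or postemergence on seedlings 2–18 cm tall, and held 13–15 days in the greenhouse.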

corn = test: Test B pre-/postemergence herbicide test; type: in vivo, Zea mays; details: for Plant response rating, Corn: preemergence; for Corn plant response rating: postemergence, visual rating, scale 0 (no effect) to 100 (complete control)
Summary of the method: as §3

lambsquarters = test: Test B pre-/postemergence herbicide test; type: in vivo, Chenopodium album; details: for Plant response rating, Lambsquarters: preemergence; for Lambsquarters plant response rating: postemergence, visual rating, scale 0 (no effect) to 100 (complete control)
Summary of the method: as §3

wild oat = test: Test B postemergence herbicide test; type: in vivo, Avena fatua; details: postemergence, visual rating, scale 0 (no effect) to 100 (complete control)
Summary of the method: as §1

giant foxtail = test: Test B pre-/postemergence herbicide test; type: in vivo, Setaria faberi; details: for Plant response rating, Foxtail, Giant: preemergence; for Foxtail, Giant plant response rating: postemergence, visual rating, scale 0 (no effect) to 100 (complete control)
Summary of the method: as §3

barnyardgrass = test: Test B pre-/postemergence herbicide test; type: in vivo, Echinochloa crus-galli; details: for Plant response rating, Barnyardgrass: preemergence; for Barnyardgrass plant response rating: postemergence, visual rating, scale 0 (no effect) to 100 (complete control)
Summary of the method: as §2

large crabgrass = test: Test B pre-/postemergence herbicide test; type: in vivo, Digitaria sanguinalis; details: for Plant response rating, Crabgrass, Large: preemergence; for Crabgrass, Large plant response rating: postemergence, visual rating, scale 0 (no effect) to 100 (complete control)
Summary of the method: as §3

pigweed = test: Test B pre-/postemergence herbicide test; type: in vivo, Amaranthus retroflexus; details: for Plant response rating, Pigweed: preemergence; for Pigweed plant response rating: postemergence, visual rating, scale 0 (no effect) to 100 (complete control)
Summary of the method: as §3

[1] = test system: small flower umbrella sedge; test: Test B flooded paddy test; type: in vivo, Cyperus difformis; details: 1000 g ai/ha, visual rating, scale 0 to 100 (0 no effect, 100 complete control), 13 to 15 days
Summary of the method: (§4)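 Read-out: visual comparison with controls, scored 0 to 100, where 100 means complete control and 0 no effect. Formulated chemicals were applied postemergence to plants 2–18 cm tall (1- to 4-leaf), or to flooded-paddy plants at the 2-leaf stage, then held 13 to 15 days under glass.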

velvetleaf = test: Test B pre-/postemergence herbicide test; type: in vivo, Abutilon theophrasti; details: for Plant response rating, Velvetleaf: preemergence; for Velvetleaf plant response rating: postemergence, visual rating, scale 0 (no effect) to 100 (complete control)
Summary of the method: as §3

blackgrass = test: Test B postemergence herbicide test; type: in vivo, Alopecurus myosuroides; details: postemergence, visual rating, scale 0 (no effect) to 100 (complete control)
Summary of the method: as §4

[2] = 500 g ai/ha, visual rating 0-100, 0 no effect, 100 complete control
[3] = 125 g ai/ha, 0 to 100 scale, 0 is no effect, 100 is complete control

## CC(=O)c1cccc(NC(=O)c2cc(C(C)(C)C)nn2CCF)c1 [Compound 128]
wheat; 125 g ai/ha
  Wheat plant response rating: 0
wheat; 500 g ai/ha
  Wheat plant response rating: 20
cocklebur; [2]
  Plant response rating, Cocklebur: 20
cocklebur; 125 g ai/ha
  Cocklebur plant response rating: 90
cocklebur; 500 g ai/ha
  Cocklebur plant response rating: 100
cocklebur; [3]
  Plant response rating, Cocklebur: 20
morningglory; [2]
  Plant response rating, Morningglory: 30
morningglory; [3]
  Plant response rating, Morningglory: 20
Surinam grass; [2]
  Plant response rating, Surinam Grass: 60
Surinam grass; 125 g ai/ha
  Surinam Grass plant response rating: 10
Surinam grass; 500 g ai/ha
  Surinam Grass plant response rating: 20
Surinam grass; [3]
  Plant response rating, Surinam Grass: 40
corn; [2]
  Plant response rating, Corn: 20
corn; [3]
  Plant response rating, Corn: 0
lambsquarters; [2]
  Plant response rating, Lambsquarters: 70
lambsquarters; 125 g ai/ha
  Lambsquarters plant response rating: 0
lambsquarters; 500 g ai/ha
  Lambsquarters plant response rating: 60
lambsquarters; [3]
  Plant response rating, Lambsquarters: 0
Wild oat; 125 g ai/ha
  Oat, Wild plant response rating: 10
Wild oat; 500 g ai/ha
  Oat, Wild plant response rating: 10
Giant foxtail; [2]
  Plant response rating, Foxtail, Giant: 60
Giant foxtail; 125 g ai/ha
  Foxtail, Giant plant response rating: 20
Giant foxtail; 500 g ai/ha
  Foxtail, Giant plant response rating: 20
Giant foxtail; [3]
  Plant response rating, Foxtail, Giant: 40
barnyardgrass; [2]
  Plant response rating, Barnyardgrass: 90
barnyardgrass; 125 g ai/ha
  Barnyardgrass plant response rating: 20
barnyardgrass; 500 g ai/ha
  Barnyardgrass plant response rating: 30
barnyardgrass; [3]
  Plant response rating, Barnyardgrass: 80
Large crabgrass; [2]
  Plant response rating, Crabgrass, Large: 100
Large crabgrass; 125 g ai/ha
  Crabgrass, Large plant response rating: 20
Large crabgrass; 500 g ai/ha
  Crabgrass, Large plant response rating: 20
Large crabgrass; [3]
  Plant response rating, Crabgrass, Large: 90
pigweed; [2]
  Plant response rating, Pigweed: 80
pigweed; 125 g ai/ha
  Pigweed plant response rating: 20
pigweed; 500 g ai/ha
  Pigweed plant response rating: 60
pigweed; [3]
  Plant response rating, Pigweed: 50
[1]
  Sedge, Umbrella plant response rating: 90
velvetleaf; [2]
  Plant response rating, Velvetleaf: 80
velvetleaf; 125 g ai/ha
  Velvetleaf plant response rating: 50
velvetleaf; 500 g ai/ha
  Velvetleaf plant response rating: 60
velvetleaf; [3]
  Plant response rating, Velvetleaf: 70
blackgrass; 125 g ai/ha
  Blackgrass plant response rating: 10
blackgrass; 500 g ai/ha
  Blackgrass plant response rating: 10

## CCOc1cccc(NC(=O)c2cc(C(C)(C)C)nn2CC)c1 [Compound 136]
wheat; 125 g ai/ha
  Wheat plant response rating: 20
wheat; 500 g ai/ha
  Wheat plant response rating: 40
cocklebur; [2]
  Plant response rating, Cocklebur: 10
cocklebur; 125 g ai/ha
  Cocklebur plant response rating: 100
cocklebur; 500 g ai/ha
  Cocklebur plant response rating: 100
cocklebur; [3]
  Plant response rating, Cocklebur: 0
morningglory; [2]
  Plant response rating, Morningglory: 70
morningglory; 125 g ai/ha
  Morningglory plant response rating: 20
morningglory; 500 g ai/ha
  Morningglory plant response rating: 100
morningglory; [3]
  Plant response rating, Morningglory: 50
Surinam grass; [2]
  Plant response rating, Surinam Grass: 90
Surinam grass; 125 g ai/ha
  Surinam Grass plant response rating: 20
Surinam grass; 500 g ai/ha
  Surinam Grass plant response rating: 70
Surinam grass; [3]
  Plant response rating, Surinam Grass: 40
corn; [2]
  Plant response rating, Corn: 30
corn; 125 g ai/ha
  Corn plant response rating: 10
corn; 500 g ai/ha
  Corn plant response rating: 30
corn; [3]
  Plant response rating, Corn: 10
lambsquarters; [2]
  Plant response rating, Lambsquarters: 100
lambsquarters; 125 g ai/ha
  Lambsquarters plant response rating: 100
lambsquarters; 500 g ai/ha
  Lambsquarters plant response rating: 100
lambsquarters; [3]
  Plant response rating, Lambsquarters: 100
Wild oat; 125 g ai/ha
  Oat, Wild plant response rating: 50
Wild oat; 500 g ai/ha
  Oat, Wild plant response rating: 60
Giant foxtail; [2]
  Plant response rating, Foxtail, Giant: 100
Giant foxtail; 125 g ai/ha
  Foxtail, Giant plant response rating: 10
Giant foxtail; 500 g ai/ha
  Foxtail, Giant plant response rating: 10
Giant foxtail; [3]
  Plant response rating, Foxtail, Giant: 80
barnyardgrass; [2]
  Plant response rating, Barnyardgrass: 100
barnyardgrass; 125 g ai/ha
  Barnyardgrass plant response rating: 50
barnyardgrass; 500 g ai/ha
  Barnyardgrass plant response rating: 90
barnyardgrass; [3]
  Plant response rating, Barnyardgrass: 90
Large crabgrass; [2]
  Plant response rating, Crabgrass, Large: 100
Large crabgrass; 125 g ai/ha
  Crabgrass, Large plant response rating: 10
Large crabgrass; 500 g ai/ha
  Crabgrass, Large plant response rating: 70
Large crabgrass; [3]
  Plant response rating, Crabgrass, Large: 100
pigweed; [2]
  Plant response rating, Pigweed: 100
pigweed; 125 g ai/ha
  Pigweed plant response rating: 60
pigweed; 500 g ai/ha
  Pigweed plant response rating: 90
pigweed; [3]
  Plant response rating, Pigweed: 100
[1]
  Sedge, Umbrella plant response rating: 90
velvetleaf; [2]
  Plant response rating, Velvetleaf: 100
velvetleaf; 125 g ai/ha
  Velvetleaf plant response rating: 60
velvetleaf; 500 g ai/ha
  Velvetleaf plant response rating: 70
velvetleaf; [3]
  Plant response rating, Velvetleaf: 50
blackgrass; 125 g ai/ha
  Blackgrass plant response rating: 30
blackgrass; 500 g ai/ha
  Blackgrass plant response rating: 60
